{"source": "patent US20220000110A1", "about": "“COMPOSITIONS COMPRISING PYRIDINE CARBOXYLATE HERBICIDES AND CELLULOSE BIOSYNTHESIS INHIBITOR HERBICIDES” (priority 2018, published 2022)", "test_system": "Hordeum vulgare (spring barley)", "format": "in vivo", "details": "HORVS", "from_the_text": "Greenhouse Trial Methodology—Evaluation of Postemergence Herbicidal Effect\nSeeds of the desired test plant species were planted in a 90:10% v/v (volume/volume) mixture of PRO-MIX® BX (Premier Tech Horticulture, Quakertown, Pa., USA) and PROFILE® GREENS GRADE™ (Profile Products LLC, Buffalo Grove, Ill., USA) planting mixture, which typically has a pH of 5.2 to 6.2 and an organic matter content of at least 50 percent, in plastic pots with a surface area of 103.2 square centimeters (cm^2). In some aspects, to help ensure good germination and healthy plants, a fungicide treatment and/or other chemical or physical treatment was applied. The plants were grown for 7-36 days (d) in a greenhouse with an approximate 14-hour (h) photoperiod which was maintained at about 23° C. during the day and 22° C. during the night. Nutrients and water were added on a regular basis and supplemental lighting was provided with overhead metal halide 1000-Watt lamps as necessary. The plants were employed for testing when they reached the second or third true leaf stage.\nEmulsifiable concentrates of each of each pyridine carboxylate herbicide (Compound A or Compound B) were prepared at 100 grams acid equivalent per liter (g ae/L). The emulsifiable concentrates also included a safener, at 120 grams active ingredient per liter (g ai/L). An aliquot of each emulsifiable concentrate was placed in a 25 mL glass vial and diluted with an aqueous mixture of 1.25% (v/v) ACTIROB® B esterified rapeseed oil (Bayer Crop Science, Research Triangle Park, N.C., USA) or MSO® Concentrate with LECI-TECH® methylated soybean oil (Loveland Products, Loveland, Colo., USA) to obtain concentrated stock solutions at the highest application rate for each herbicide, based upon a 12 milliliter (mL) application volume at a rate of 187 liters per hectare (L/ha). The concentrated stock solutions were further diluted with an aqueous mixture of 1.25% v/v ACTIROB® B or MSO® Concentrate with LECI-TECH® to obtain stock solutions at reduced application rates for each herbicide. Spray solutions of the herbicide combinations (Compound A or Compound B plus the CBI herbicide) were prepared by adding weighed amounts or aliquots of the CBI herbicide to the stock solutions of Compound A or Compound B to form 12-mL spray solutions in two-way combinations.\nThe spray solutions were applied to the plant material with an overhead Mandel track sprayer equipped with 8002E nozzles calibrated to deliver 187 L/ha over an application area of 0.503 square meters (m^2) at a spray height of 18 inches (43 centimeters (cm)) above the average plant canopy. Control plants were sprayed in the same manner with the solvent blank. All pyridine carboxylate herbicide (component a) application rates are given as “g ae/ha” and all CBI herbicide (component b) application rates are given as “g ai/ha.”\nThe treated plants and control plants were placed in a greenhouse as described above and watered by sub-irrigation to prevent wash-off of the test compounds. After 20-22 d, the condition of the test plants as compared with that of the control plants was determined visually and scored on a scale of 0 to 100 percent where 0 corresponds to no injury and 100 corresponds to complete kill.", "note": "Where two headings read alike, the source gives them in different places."}
{"compound": "N#CCOC(=O)c1nc(-c2ccc3cc[nH]c3c2F)c(F)c(N)c1Cl", "note": "[Compound A, cyanomethyl 4-amino-3-chloro-5-fluoro-6-(7-fluoro-1H-indol-6-yl)pyridine-2-carboxylate]", "values": [{"measurement": "Obs % visual injury", "setting": "Table 3, Compound A 7.5 g/ha", "result": 8, "unit": "%"}, {"measurement": "Obs % visual injury", "setting": "Table 3, Compound A 10 g/ha", "result": 5, "unit": "%"}, {"measurement": "Obs % visual injury", "setting": "Table 3, Compound A 15 g/ha", "result": 3, "unit": "%"}, {"measurement": "Obs % visual injury", "setting": "Table 4, Compound A 7.5 g/ha", "result": 8, "unit": "%"}, {"measurement": "Obs % visual injury", "setting": "Table 4, Compound A 10 g/ha", "result": 5, "unit": "%"}, {"measurement": "Obs % visual injury", "setting": "Table 4, Compound A 15 g/ha", "result": 3, "unit": "%"}]}
